Reference: PubChem BioAssay (NCI)
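How tested: cells in 96-well plates exposed to compound for 48 hours at five concentrations. The concentration for 50% growth inhibition is given as GI50. TGI: concentration producing complete growth inhibition.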

Assays:
Assay in all cases: NCI-60 cell line screen, 48 h
MDA-MB-231 breast = test system: MDA-MB-231 breast
LOX IMVI melanoma = test system: LOX IMVI melanoma
SNB-75 CNS = test system: SNB-75 CNS
M14 melanoma = test system: M14 melanoma
HOP-92 NSCLC = test system: HOP-92 NSCLC
SN12C renal = test system: SN12C renal
NCI-H522 lung = test system: NCI-H522 lung
OVCAR-5 ovarian = test system: OVCAR-5 ovarian
786-0 renal = test system: 786-0 renal
UACC-257 melanoma = test system: UACC-257 melanoma

| SMILES | TGI (MDA-MB-231 breast) [µM] | TGI (LOX IMVI melanoma) [µM] | TGI (SNB-75 CNS) [µM] | TGI (M14 melanoma) [µM] | TGI (HOP-92 NSCLC) [µM] | TGI (SN12C renal) [µM] | TGI (NCI-H522 lung) [µM] | TGI (OVCAR-5 ovarian) [µM] | TGI (786-0 renal) [µM] | TGI (UACC-257 melanoma) [µM] | GI50 (MDA-MB-231 breast) [µM] | GI50 (LOX IMVI melanoma) [µM] | GI50 (SNB-75 CNS) [µM] | GI50 (M14 melanoma) [µM] | GI50 (HOP-92 NSCLC) [µM] | GI50 (SN12C renal) [µM] | GI50 (NCI-H522 lung) [µM] | GI50 (OVCAR-5 ovarian) [µM] | GI50 (UACC-257 melanoma) [µM] |
| --- | --- | --- | --- | --- | --- | --- | --- | --- | --- | --- | --- | --- | --- | --- | --- | --- | --- | --- | --- |
| N#Cc1c(-c2ccc([N+](=O)[O-])cc2)cc(-c2ccc(Nc3ccnc4cc(Cl)ccc34)cc2)nc1N | 33.7 | 2.9 | 34.6 | 41.9 | 48.7 | 17.6 | 11.2 | 45.6 | 3.02 | 62.3 |  |  |  |  |  |  |  |  |  |
| Cc1ccc(C(=O)N/N=C2/C(=O)c3c4ccccc4cc4cccc2c34)cc1 | > 100 | > 100 | > 81 | > 100 | > 94 | 76.5 | 59.8 | > 100 | 74.1 | > 100 |  |  |  |  |  |  |  |  |  |
| O=P1(Cc2ccccc2)c2ccccc2-c2ccccc21 | > 79.4 | 23.1 | > 50.7 | 20.2 | 6.99 | > 78.8 | 14.1 | 54.7 | > 100 | 16 |  |  |  |  |  |  |  |  |  |
| C=CCN(CCN(CC=C)S(=O)(=O)c1ccc(C)cc1)S(=O)(=O)c1ccc(C)cc1 | > 100 | > 100 | > 100 | > 100 | > 100 | > 100 | > 100 |  |  | > 100 |  |  |  |  |  |  |  |  |  |
| CC(C)=C[C@@H]1O[C@H](O)[C@@H]([C@H]2CC[C@@]3(C)[C@@H]4CC[C@H]5C(C)(C)C(=O)CC[C@@]56C[C@@]46CC[C@]23C)[C@@H]1O | 37.1 |  | 32.5 | 57.3 | 32 | 38.2 | 30.3 | 57.8 | 27.6 | 31.6 |  |  |  |  |  |  |  |  |  |
| COc1cccc2cc(C(=O)NC34CC5CC(CC(C5)C3)C4)c(=N)oc12 | > 100 | > 100 | > 100 | > 100 | > 55 | > 100 | > 88.7 | > 100 | > 100 | > 100 |  |  |  |  |  |  |  |  |  |
| COc1ccccc1C1C(C#N)=C(N)Oc2cc(O)ccc21 (stereo unspecified) | 24.8 | > 100 | 56.4 | 35 | 33.7 | 31.1 | 17.1 | > 100 |  | 94.6 | 4.34 | 30.8 | 23 | 13.4 | 4.77 | 11.6 | 3.15 | 29.2 | 27.7 |
| CC(=O)NC1C(OCc2ccccc2)OC(CO)C(O)C1OCC(=O)N[C@@H](C)C(=O)N[C@H](CCC(=O)NCCNc1ccc([N+](=O)[O-])c2[nH]c3ccccc3c(=O)c12)C(N)=O (stereo partly specified) | 94.4 | 99.5 | 61.5 | > 100 | 80.8 | > 100 | > 100 | > 100 | 83.2 | 54.3 |  |  |  |  |  |  |  |  |  |
| CCOC(=O)/C=C(/C(=O)OCC)n1ccc(=O)n(Cc2cnnn2CCCCOC(C)=O)c1=O | > 100 | > 100 | > 100 |  | 45.7 | > 100 | 42.6 | > 100 | > 100 | > 100 |  |  |  |  |  |  |  |  |  |
| CCOC(=O)c1nc2cc(C(F)(F)F)ccc2nc1Oc1ccc(F)cc1 | > 100 | > 100 | > 100 | > 100 | > 100 | > 100 | > 100 | > 100 | > 100 | > 100 |  |  |  |  |  |  |  |  |  |
| CN(C)c1ccc(/C=C(\NC(=O)c2ccccc2)C(=O)NC(Cc2c[nH]c3ccccc23)C(=O)O)cc1 (stereo unspecified) | > 100 | > 100 | 33.1 | > 100 | > 100 | > 100 | > 100 | > 100 | > 100 | > 100 |  |  |  |  |  |  |  |  |  |
| [N-]=[N+]=Nc1ccc2c(c1)Sc1ccccc1N2CCCCN1CCN(C(=O)CCNC(=O)Cc2ccc(C(=O)c3ccccc3)cc2)CC1 | 16.9 | 5.17 | > 24.4 | 11.8 | > 29.2 | > 33 | 7.51 | 51.4 | 22.9 | 9.96 |  |  |  |  |  |  |  |  |  |
| COc1ccc(/C=C/C(=O)Oc2ccccc2OC)cc1 | 18 | > 70.7 | > 74.1 | > 100 | 97.7 | 58.2 | > 72 | 98.2 | > 67 | > 100 |  |  |  |  |  |  |  |  |  |
| O=C1/C(=C/c2ccccc2)CCCc2ccccc21 | 39.1 | 34.9 | > 100 | 41.4 | 32.9 | 33.8 | 51.6 | 42.2 | 31.3 | 33.3 |  |  |  |  |  |  |  |  |  |
| NS(=O)(=O)c1nnc(NS(=O)(=O)c2ccc([N+](=O)[O-])cc2)s1 | > 100 | > 100 | > 100 | > 100 | > 100 |  | 77.5 | > 100 | > 100 |  |  |  |  |  |  |  |  |  |  |
| CC(CC[C@@]1(O)OC2C[C@H]3[C@@H]4CC[C@H]5CC(OC6OC(CO)C(OC7OC(CO)C(O)C(OC8OCC(O)C(O)C8O)C7OC7OC(CO)C(O)C(O)C7O)C(O)C6O)[C@H](O)CC5(C)[C@H]4CCC3(C)C2[C@@H]1C)COC1OC(CO)C(O)C(O)C1O (stereo partly specified) | > 50 | 48.8 | 9.19 | > 50 | > 50 | 19.6 | 22.3 | 27.8 | 21.8 | 48.2 |  |  |  |  |  |  |  |  |  |
| CCNC(=S)NNC(=O)CSc1nc2ccc(I)cc2c(=O)n1Cc1ccccc1 | > 100 | > 100 | > 100 | > 100 | 97.7 | > 100 | > 100 | > 100 | > 100 | > 87.1 |  |  |  |  |  |  |  |  |  |
| CCOC(=O)C1(C(=O)OCC)C=C(c2ccccc2)N(C2OC(COC(C)=O)C(OC(C)=O)C(OC(C)=O)C2OC(C)=O)C1=S (stereo unspecified) | > 100 | > 100 |  | > 100 | > 100 | > 100 | > 100 | > 100 | > 100 | > 100 |  |  |  |  |  |  |  |  |  |
| O=c1[nH]c(=O)n([C@@H]2O[C@H](CO)[C@@H](O)[C@@H]2F)cc1I | > 100 | > 100 | > 100 | > 100 | > 100 | > 100 | > 100 | > 100 | > 100 | > 100 |  |  |  |  |  |  |  |  |  |
